# Values of other authors in article PMC7618104, “The GLP-1 analogue, exendin-4, improves bone material properties and strength through a central relay in ovariectomized mice” (American journal of physiology. Endocrinology and metabolism, 2025).
# Ends that are not written are not given here.
# How the values were obtained:
# brain = conditions: in vivo; cited from earlier work
# Excerpt: (§1) Taken altogether, these studies might support a brain entry through adsorptive transcytosis across brain endothelial cells. The l ...
# [1] = test system: individuals in randomized clinical trials; conditions: cited from earlier work
# Excerpt: (§2) Previously, we and others have highlighted the beneficial role of several gut hormones on bone physiology ([5]). Among gut hormones, glucagon-like peptide-1 (GLP-1) was reported to be beneficial for bone strength. Indeed, animals with a genetic impairment of the GLP-1 receptor (GLP-1r) presented with reduced bone mass, deterioration of bone microarchitecture and alterations of bone material properties, especially enzymatic collagen crosslinking, that jeopardized bone strength ([6], [7]). In humans, GLP-1r gene polymorphisms have also been reported to impact bone mineral density and mass ([8]) ...
# [2] = test system: streptozotocin-induced type 1 diabetes mellitus; conditions: cited from earlier work
# humans = conditions: exogenous GLP-1, humans; cited from earlier work
# Excerpt: as §2
# osteoblast cultures = conditions: in vitro study; cited from earlier work
# Excerpt: These observations formed the basis for investigating the potential utility of a GLP-1r agonist for the management of bone fragility. Ex-4 has already been administered subcutaneously in preclinical models of bone fragility, including the OVX model used in the present study. Previous studies have reported positive effects of Ex-4 that increased bone mineral density, trabecular microstructure and circulating calcitonin leve ...
# CNS = conditions: mouse, in vivo, iv; cited from earlier work
# Excerpt: as §1
Substance,brain entry after peripheral administration (brain),fracture in individuals affected by type 2 diabetes mellitus [1],further results
semaglutide,reported to enter the brain parenchyma,–,–
liraglutide,reported to enter the brain parenchyma,contribute to reduce fracture,bone resistance to fracture [2]: able to enhance bone resistance to fracture
"glucagon-like peptide-1 (HAEGTFTSDVSSYLEGQAAKEFIAWLVKGR; ends and bridges not checked; UniProt P01275 98-127, looked up) [GLP-1, gut hormone]",–,–,bone remodeling (humans): rapidly modulates bone remodeling; collagen maturity in vitro (osteoblast cultures): no direct positive effects of GLP-1 on collagen maturity
lixisenatide,–,contribute to reduce fracture,–
"[Ser8]GLP-1: radiolabeled [Ser8]GLP-1, a stable analogue of GLP-1 (HSEGTFTSDVSSYLEGQAAKEFIAWLVKGRG; also: radiolabeled; UniProt P01275 98-128, looked up, variant A8S)",–,–,"CNS access, inhibition by excess unlabeled peptide or exendin antagonist (CNS): not inhibited by excess doses"
